Data reported in PubChem BioAssay (NCI).
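Five compound concentrations were applied to cells in 96-well plates for 48 hours; endpoints were derived by simple linear interpolation of the resulting dose-response curve. GI50 is the concentration that inhibits growth by half. TGI: concentration producing complete growth inhibition.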

Key:
Test in all cases: growth of human tumour cells (NCI), 48 h
[1] = test system: A498 renal
[2] = test system: SNB-19 CNS
[3] = test system: MDA-MB-435
[4] = test system: SN12C renal
[5] = test system: TK-10 renal
[6] = test system: HOP-62 NSCLC
[7] = test system: ACHN renal
[8] = test system: OVCAR-8 ovarian
[9] = test system: NCI/ADR-RES ovarian
[10] = test system: EKVX NSCLC
[11] = test system: 786-0 renal
[12] = test system: NCI-H23 lung
[13] = test system: NCI-H226 lung
[14] = test system: HCT-116 colon
[15] = test system: HCT-15 colon
[16] = test system: MCF7 breast
[17] = test system: HS 578T breast
[18] = test system: KM12 colon
[19] = test system: RPMI-8226 leukemia
[20] = test system: M14 melanoma
[21] = test system: SR leukemia
[22] = test system: PC-3 prostate
[23] = test system: SK-MEL-2 melanoma
[24] = test system: SK-MEL-28 melanoma
[25] = test system: NCI-H460 lung
[26] = test system: OVCAR-5 ovarian
[27] = test system: UACC-62 melanoma
[28] = test system: LOX IMVI melanoma
[29] = test system: HT29 colon
[30] = test system: OVCAR-3 ovarian
[31] = test system: CAKI-1 renal
[32] = test system: CCRF-CEM leukemia
[33] = test system: MDA-MB-231 breast
[34] = test system: HOP-92 NSCLC
[35] = test system: SK-OV-3 ovarian
[36] = test system: NCI-H522 lung
[37] = test system: U251 CNS
[38] = test system: MOLT-4 leukemia
[39] = test system: BT-549 breast
[40] = test system: RXF 393 renal
[41] = test system: T-47D breast
[42] = test system: IGROV1 ovarian
[43] = test system: K-562 leukemia
[44] = test system: COLO 205 colon
[45] = test system: UACC-257 melanoma
[46] = test system: UO-31 renal
[47] = test system: SW-620 colon
[48] = test system: SK-MEL-5 melanoma
[49] = test system: SF-268 CNS
[50] = test system: HL-60(TB) leukemia
[51] = test system: HCC-2998 colon
[52] = test system: SNB-75 CNS
[53] = test system: A549 NSCLC
[54] = test system: SF-539 CNS
[55] = test system: MALME-3M melanoma
[56] = test system: OVCAR-4 ovarian
[57] = test system: DU-145 prostate
[58] = test system: SF-295 CNS

Cc1c2cnccc2c(C)c2c1c1cc(CO)ccc1n2C
GI50 [1]: 30.5 nM | TGI [1]: 169 nM | GI50 [2]: 299 nM | TGI [2]: 2370 nM | GI50 [3]: 349 nM | TGI [3]: 1390 nM | GI50 [4]: 187 nM | TGI [4]: 1650 nM | GI50 [5]: 553 nM | TGI [5]: 4150 nM | GI50 [6]: 211 nM | TGI [6]: 2330 nM | GI50 [7]: 66.5 nM | TGI [7]: 1160 nM | GI50 [8]: 178 nM | TGI [8]: 2450 nM | GI50 [9]: 187 nM | TGI [9]: 1930 nM | GI50 [10]: 325 nM | TGI [10]: 1290 nM | GI50 [11]: 302 nM | TGI [11]: 2660 nM | GI50 [12]: 273 nM | TGI [12]: 1340 nM | GI50 [13]: 109 nM | TGI [13]: 570 nM | GI50 [14]: 45.4 nM | TGI [14]: 651 nM | GI50 [15]: 217 nM | TGI [15]: 1310 nM | GI50 [16]: 203 nM | TGI [16]: 1370 nM | GI50 [17]: 521 nM | TGI [17]: 3130 nM | GI50 [18]: 303 nM | TGI [18]: 1820 nM | GI50 [19]: 260 nM | TGI [19]: 1380 nM | GI50 [20]: 298 nM | TGI [20]: 1220 nM | GI50 [21]: 75.2 nM | GI50 [22]: 367 nM | TGI [22]: 2140 nM | GI50 [23]: 455 nM | TGI [23]: 2010 nM | GI50 [24]: 384 nM | TGI [24]: 1560 nM | GI50 [25]: 149 nM | TGI [25]: 571 nM | GI50 [26]: 244 nM | TGI [26]: 1180 nM | GI50 [27]: 232 nM | TGI [27]: 1030 nM | GI50 [28]: 255 nM | TGI [28]: 1210 nM | GI50 [29]: 257 nM | TGI [29]: 2730 nM | GI50 [30]: 295 nM | TGI [30]: 1420 nM | GI50 [31]: 163 nM | TGI [31]: 1080 nM | GI50 [32]: 328 nM | TGI [32]: 2610 nM | GI50 [33]: 348 nM | TGI [33]: 1790 nM | GI50 [34]: 382 nM | TGI [34]: 2630 nM | GI50 [35]: 324 nM | TGI [35]: 1350 nM | GI50 [36]: 350 nM | TGI [36]: 1910 nM | GI50 [37]: 298 nM | TGI [37]: 1630 nM | GI50 [38]: 286 nM | TGI [38]: 2380 nM | GI50 [39]: 927 nM | TGI [39]: 2280 nM | GI50 [40]: 209 nM | TGI [40]: 1040 nM | GI50 [41]: 275 nM | TGI [41]: 3140 nM | GI50 [42]: 130 nM | TGI [42]: 1220 nM | GI50 [43]: 264 nM | TGI [43]: 1680 nM | GI50 [44]: 258 nM | TGI [44]: 1260 nM | GI50 [45]: 292 nM | TGI [45]: 1680 nM | GI50 [46]: 255 nM | TGI [46]: 1910 nM | GI50 [47]: 116 nM | TGI [47]: 1390 nM | GI50 [48]: 425 nM | TGI [48]: 1580 nM | GI50 [49]: 268 nM | TGI [49]: 1690 nM | GI50 [50]: 408 nM | TGI [50]: 2100 nM | GI50 [51]: 465 nM | TGI [51]: 1930 nM | GI50 [52]: 434 nM | TGI [52]: 1700 nM | GI50 [53]: 330 nM | TGI [53]: 2070 nM | GI50 [54]: 343 nM | TGI [54]: 1540 nM | GI50 [55]: 294 nM | TGI [55]: 1180 nM | GI50 [56]: 299 nM | TGI [56]: 1200 nM | GI50 [57]: 288 nM | TGI [57]: 1530 nM | GI50 [58]: 316 nM | TGI [58]: 1660 nM
